Source: BindingDB's records for patent US20230159469 (Txinno Bioscience, 2023)

What follows are compounds tested against T1, Ectonucleotide pyrophosphatase/phosphodiesterase family member 1 (Homo sapiens, UniProt P22413) (assay: ENPP1 Enzyme Assay with eGAMP Substrate).
T1 sequence (P22413 whole entry): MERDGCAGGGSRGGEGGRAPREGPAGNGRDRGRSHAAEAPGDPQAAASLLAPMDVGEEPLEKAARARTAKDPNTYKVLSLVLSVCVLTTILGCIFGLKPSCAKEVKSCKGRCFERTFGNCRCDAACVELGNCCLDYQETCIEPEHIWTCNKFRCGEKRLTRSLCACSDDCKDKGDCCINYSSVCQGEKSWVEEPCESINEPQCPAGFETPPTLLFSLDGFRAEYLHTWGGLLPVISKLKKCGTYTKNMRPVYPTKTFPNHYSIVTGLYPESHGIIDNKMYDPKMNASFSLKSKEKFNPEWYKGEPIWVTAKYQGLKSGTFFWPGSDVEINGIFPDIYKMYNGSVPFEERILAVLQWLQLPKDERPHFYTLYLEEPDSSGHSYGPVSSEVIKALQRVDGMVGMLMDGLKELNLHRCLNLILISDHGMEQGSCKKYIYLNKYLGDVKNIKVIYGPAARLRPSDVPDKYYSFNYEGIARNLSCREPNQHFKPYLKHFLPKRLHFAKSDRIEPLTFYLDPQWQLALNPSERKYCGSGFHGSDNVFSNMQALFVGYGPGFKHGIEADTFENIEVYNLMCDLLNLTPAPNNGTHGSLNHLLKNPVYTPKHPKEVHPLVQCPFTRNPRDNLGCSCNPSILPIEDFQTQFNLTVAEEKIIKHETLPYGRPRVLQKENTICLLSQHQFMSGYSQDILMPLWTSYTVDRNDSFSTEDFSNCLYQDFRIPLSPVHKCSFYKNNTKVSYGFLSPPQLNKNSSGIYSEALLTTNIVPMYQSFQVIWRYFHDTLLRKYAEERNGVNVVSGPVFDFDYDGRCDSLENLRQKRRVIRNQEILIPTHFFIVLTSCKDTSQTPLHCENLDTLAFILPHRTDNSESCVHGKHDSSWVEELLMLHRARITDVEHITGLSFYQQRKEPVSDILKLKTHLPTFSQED
Description: ENPP1 hydrolyzes nucleotides or nucleotide derivatives to produce nucleoside -5′-monophosphate and pyrophosphate. in addition, ENPP1 hydrolyzes 2′,3′-cGAMP to produce 5′-adenosine monophosphate (AMP) and 5′-guanosine monophosphate (GMP). AMP produced from the reaction is measured using the AMP-Glo kit (Promega). The AMP-Glo kit contains two reagents. The first reagent terminates the AMP-producing enzymatic reaction, removes ATP and converts the produced AMP into ADP. The second reagent converts ADP to ATP which is used to generate luminescence in the luciferase reaction. […] CaCl2, 1 μM ZnCl2, 5% glycerol and 1% DMSO. […] The reaction was initiated by addition of cGAMP (at a final concentration of 5 μM) and reacted at 37 C. for 90 minutes. At the end of the reaction, 10 μl of the AMP-Glo first reagent was added to stop the reaction and the result was stored at room temperature for […]. After storage, 20 μl of an AMP detection solution (a mixture of AMP-Glo II reagent and Kinase-Gio at a ratio of 1:100) was added and stored at room. temperature for 1 hour. Luminescence signals were measured using a Victor plate reader (Perkin Elmer). The maximal activity control (containing enzymes and substrates only in the presence of 1% DMSO; MAX) and the minimal activity control (containing substrates and 1% DMSO; MIN) were evaluated simultaneously. In each experiment, serially diluted reference ENPP1 inhibitors were tested together. IC50, indicating % residual activity versus compound concentration was determined by fitting inhibition curves using the 3-parameter analysis of GraphPad Prism software. Serially diluted samples of one compound were tested two or more times and an average IC50 of each compound was calculated.

| Compound | IC50 |
| --- | --- |
| NS(=O)(=O)Nc1cccc(-c2n[nH]c(=O)c3ccccc23)c1 [US20230159469, Example 87] | < 1000 nM |
| N=S(=O)(O)NCc1ccc(-c2n[nH]c(=O)c3ccccc23)cc1 [US20230159469, Example 96] | < 1000 nM |
| COc1cc2c(-c3ccc(CNS(=N)(=O)O)cc3)nn(C)c(=O)c2cc1OC [US20230159469, Example 108] | ≥ 1000 nM |
